Results from patent publication US9115145B2, “Tocotrienol derivatives and associated methods” (FIRST TECH INTERNATIONAL LIMITED, priority 2011, dated 2015).
Read-outs that look alike come from different tables or passages of the source.

Key:
[1] = test system: leukemia and colon cancer cell lines; test: NCI screening at several concentrations (GI50, TGI, LC50); format: cell-based, human
Experimental: The human tumor cell lines of the cancer screening panel were grown in RPMI 1640 medium containing 5% fetal bovine serum and 2 mM L-glutamine. For a typical screening experiment, cells are inoculated into 96 well microtiter plates in 100 μL at plating densities ranging from 5000 to 40,000 cells/well depending on the doubling time of individual cell lines. After cell inoculation, the microtiter plates are incubated at 37° C., 5% CO2, 95% air and 100% relative humidity for 24 hours prior to addition of experimental drugs. After 24 hours, two plates of each cell line are fixed in situ with Trichloroacetic acid (“TCA”), to represent a measurement of the cell population for each cell line at the time of drug addition. Experimental drugs are solubilized in dimethyl sulfoxide at 400-fold the desired final maximum test concentration and stored frozen prior to use. At the time of drug addition, an aliquot of frozen concentrate is thawed and diluted to twice the desired final maximum test concentration with complete medium containing 50 ng/mL gentamicin. An aliquot of 100 μL of this drug dilution is added to the appropriate microtiter wells already containing 100 μL of medium, resulting in the required final drug concentrations. Following drug addition, the plates are incubated for an additional 48 h at 37° C., 5% CO2, 95% air, and 100% relative humidity. For adherent cells, the assay is terminated by the addition of cold TCA. Cells are fixed in situ by the gentle addition of 50 μL of cold 50% (w/v) TCA (final concentration, 10% TCA) and incubated for 60 min at 4° C. The supernatant is discarded, and the plates are washed five times with tap water and air dried. Sulforhodamine B (SRB) solution (100 μL) at 0.4% (w/v) in 1% acetic acid is added to each well, and plates are incubated for 10 min at room temperature. After staining, unbound dye is removed by washing five times with 1% acetic acid and the plates are air dried. Bound stain is subsequently solubilized with 10 mM trizma base, and the absorbance is read on an automated plate reader at a wavelength of 515 nm. For suspension cells, the methodology is the same except that the assay is terminated by fixing settled cells at the bottom of the wells by gently adding 50 μL of 80% TCA (final concentration, 16% TCA). FIGS. 37-74 indicate the growth inhibition effects of selected Compounds against a variety of cell lines based on the above described testing configuration. FIGS. 37-74 present the Growth percent for a given compound against the cell lines and both values and a bar chart of the difference between the mean growth percent and the growth percent which is an indication of the selectivity of the compound for that particular cell line. […]

[2] = test system: +SA mammary epithelial cells; test: MTT assay of +SA cells (antiproliferative activity); format: cell-based, mouse; details: described from FIG. 32 / text
Experimental: The antiproliferative activities of Compounds 3-44 against the highly metastatic malignant +SA mammary epithelial cells were evaluated by MTT assay. Materials for the assay were purchased from Sigma Chemical Company (St. Louis, Mo.) unless otherwise stated. The highly malignant +SA mouse mammary epithelial cell line was serially passaged at subconfluent cell density. The +SA mammary tumor cell line was derived from an adenocarcinoma that developed spontaneously in a BALB/c female mouse. +SA cells were maintained in serum-free defined medium consisting of Dulbecco's modified Eagle's medium (DMEM)/F12 containing 5 mg/mL bovine serum albumin (BSA), 10 […], 100 U/mL soybean trypsin inhibitor, 100 U/mL penicillin G, 0.1 mg/mL streptomycin, […], and 10 ng/mL epidermal growth factor. For subculturing, cells were rinsed twice with sterile Ca2+ and Mg2+-free phosphate buffered saline (PBS) and incubated in 0.05% trypsin containing 0.025% EDTA in PBS for 5 min at 37° C. The released cells were centrifuged, resuspended in fresh media and counted using hemocytometer. A stock solution of the compounds was prepared in DMSO. Once dissolved, this solution was added to a small volume of sterile 10% BSA in water and incubated overnight at 37° C. This solution conjugated to BSA was used to prepare various concentrations (0-40 μM) of tocotrienol analogs. DMSO was added to all treatment media such that the final DMSO concentration was the same in all treatment groups within a given experiment and was always less than 0.1%. For cytotoxic studies, cells were seeded at a density of 5×10^4 cells/well (+SA cells) or 1×10^5 cells/well (CL-S1 cells) (6 wells/group) in 24-well culture plates and allowed to grow in their respective control media. After 3 days incubation period (approximately 70% confluency), cells were divided equally into various treatment groups and exposed to their respective treatments for a 24 hours incubation period. Following the 24 hours treatment period, cell viability was measured using the MTT assay.
+SA Mammary epithelial cell viable number was determined by a 3-(4,5-dimethylthiazol-2yl)-2,5-diphenyl tetrazolium bromide (MTT) colorimetric assay. On the assay day, treatment medium was replaced with fresh control medium containing 0.42 mg/mL MTT, and the cells in 24-well plates were incubated at 37° C. for 4 hours. Afterward, the medium was removed, and the MTT crystals were dissolved in isopropyl alcohol (1 mL/well). The optical density of each sample was read at 570 nm on a microplate reader (SpectraCount, Packard BioScience Company), against a blank prepared from cell-free cultures. The number of cells/well was calculated against a standard curve prepared by plating various concentrations of cells, as determined by hemocytometer, at the start of each experiment.
Differences among the various treatment groups in +SA cell cytotoxic studies were determined by analysis of variance (ANOVA) followed by Dunnett's t-test. The difference of P<0.05 was considered to be statistically significant as compared with vehicle-treated controls unless separately described. Linear regression analysis of treatment effects on viable cell number in growth and cytotoxicity studies was used to determine the 50% growth inhibition concentration (IC50) for individual treatments.

[3] = test system: MCF7 human breast cancer cell line; test: MTT assay of MCF7 cells; format: cell-based; details: Homo sapiens, media containing 1% fetal bovine serum
Experimental: (§1) MDA-MB-231 and MCF7 cells were plated at a density of 8×10^3 cells/well and 10^4 cells/well in 96-well culture plates, respectively. The compounds were fed in serum free media containing 5% and 1% fetal bovine serum for MDA-MB-231 and MCF7 cells, respectively.

[4] = test system: MCF 10A non-tumorigenic mammary epithelial cells; test: MTT assay of MCF10A cells; format: cell-based, human; details: for IC50: Homo sapiens; for Selectivity index: IC50 for MCF 10A divided by IC50 for +SA cell line
Summary of the method: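 MCF 10A non-tumorigenic human mammary epithelial cells were seeded at 10×10^4 cells/well and treated with compounds in serum-free medium, final DMSO below 0.1%. Viability was read by MTT, and IC50 came from non-linear regression. Selectivity index = MCF 10A IC50 ÷ +SA cell line IC50.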

[5] = test system: MDA-MB-231 human breast cancer cell line; test: MTT assay of MDA-MB-231 cells; format: cell-based; details: Homo sapiens, media containing 5% fetal bovine serum
Experimental: as §1

[6] = test system: 60 human tumor cell lines; test: NCI in vitro screening against 60 human cell lines, single concentration; format: cell-based; details: 10 μM dose; negative values indicate cytotoxicity
Experimental: Compounds selected from Compounds 3-44 were provided to the National Cancer Institute for in vitro screening against 60-human cell lines for their ability to inhibit the growth of tumor cells in a full panel representing nine different organs (blood, lung, colon, CNS, skin, ovary, kidney, prostate, and breast). The compounds were tested at a single concentration of 10 μM, and the percentages of growth inhibitions over the sixty tested cell lines were determined. Compounds showing the highest activity were chosen for secondary assays using five different compound concentrations.
The human tumor cell lines of the cancer screening panel were grown in RPMI 1640 medium containing 5% fetal bovine serum and 2 mM L-glutamine. For a typical screening experiment, cells are inoculated into 96 well microtiter plates in 100 μL at plating densities ranging from 5000 to 40,000 cells/well depending on the doubling time of individual cell lines. After cell inoculation, the microtiter plates are incubated at 37° C., 5% CO2, 95% air and 100% relative humidity for 24 hours prior to addition of experimental drugs. After 24 hours, two plates of each cell line are fixed in situ with Trichloroacetic acid (“TCA”), to represent a measurement of the cell population for each cell line at the time of drug addition. Experimental drugs are solubilized in dimethyl sulfoxide at 400-fold the desired final maximum test concentration and stored frozen prior to use. At the time of drug addition, an aliquot of frozen concentrate is thawed and diluted to twice the desired final maximum test concentration with complete medium containing 50 ng/mL gentamicin. An aliquot of 100 μL of this drug dilution is added to the appropriate microtiter wells already containing 100 μL of medium, resulting in the required final drug concentrations. Following drug addition, the plates are incubated for an additional 48 h at 37° C., 5% CO2, 95% air, and 100% relative humidity. For adherent cells, the assay is terminated by the addition of cold TCA. Cells are fixed in situ by the gentle addition of 50 μL of cold 50% (w/v) TCA (final concentration, 10% TCA) and incubated for 60 min at 4° C. The supernatant is discarded, and the plates are washed five times with tap water and air dried. Sulforhodamine B (SRB) solution (100 μL) at 0.4% (w/v) in 1% acetic acid is added to each well, and plates are incubated for 10 min at room temperature. After staining, unbound dye is removed by washing five times with 1% acetic acid and the plates are air dried. Bound stain is subsequently solubilized with 10 mM trizma base, and the absorbance is read on an automated plate reader at a wavelength of 515 nm. For suspension cells, the methodology is the same except that the assay is terminated by fixing settled cells at the bottom of the wells by gently adding 50 μL of 80% TCA (final concentration, 16% TCA). FIGS. 37-74 indicate the growth inhibition effects of selected Compounds against a variety of cell lines based on the above described testing configuration. FIGS. 37-74 present the Growth percent for a given compound against the cell lines and both values and a bar chart of the difference between the mean growth percent and the growth percent which is an indication of the selectivity of the compound for that particular cell line.

[7] = test system: MDA-MB-231 human breast cancer cells; test: Wound-healing assay (cell migration); format: cell-based; details: Homo sapiens; MDA-MB-231, wound-healing assay, dose response; read-out: IC50 antimigratory activity
Summary of the method: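 Scratch wounds made in confluent (>95%) monolayers, then compounds added in fresh medium (5 μM in screening; concentration range in follow-up), DMSO as negative control, triplicate. After 24 h serum-starved at 37 °C, cells fixed and Diff-Quick stained. Migrated cells counted per 400× field (≥3 fields); IC50 from concentration range.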

[8] = MCF-10A, MCF10A cells, Table II, non-linear regression, read-out: MCF10A (IC50)
[9] = MCF 10A non-tumorigenic cells, Table I, read-out: IC50 MCF 10A

Row | Compound | GI50 [1] | antiproliferative activity against +SA mammary tumor cells (in words) [2] | IC50 [3] [µM] | IC50 [4, 8] [nM] | IC50 [4, 9] [nM] | Selectivity index [4] | IC50 [5] [µM] | mean percent growth across all 60 cell lines (mean 60) [6] | IC50 [7] [µM]
1 | CC(C)=CCC/C(C)=C/CC/C(C)=C/CC[C@]1(C)CCc2c3c(cc(C)c2O1)OCN(C1CCN(Cc2ccccc2)CC1)C3 [Compound 8, (R)-2-(1-benzylpiperidin-4-yl)-6,8-dimethyl-8-((3E,7E)-4,8,12-trimethyltrideca-3,7,11-trienyl)-1,2,3,8,9,10-hexahydrochromeno[5,6-e][1,3]oxazine] | nanomolar |  |  |  |  |  |  |  | 
2 | CC(C)=CCC/C(C)=C/CC/C(C)=C/CC[C@]1(C)CCc2c3c(c(C)c(C)c2O1)OCN(CCCCCO)C3 [Compound 17, 5-((R)-5,6,8-trimethyl-8-((3E,7E)-4,8,12-trimethyltrideca-3,7,11-trienyl)-9,10-dihydrochromeno[5,6-e][1,3]oxazin-2(1H,3H,8H)-yl)pentan-1-ol] | nanomolar | very high activities | > 20 | 8900 | 8900 | 5.24 | > 50 |  | 
3 | CC(C)=CCC/C(C)=C/CC/C(C)=C/CC[C@]1(C)CCc2c3c(cc(C)c2O1)OCN(CCCCCCO)C3 [Compound 38, 6-((R)-6,8-dimethyl-8-((3E,7E)-4,8,12-trimethyltrideca-3,7,11-trienyl)-9,10-dihydrochromeno[5,6-e][1,3]oxazin-2(1H,3H,8H)-yl)hexan-1-ol] | nanomolar |  | > 20 | 2500 | 2500 | 1.92 | > 5 | negative | 1.5
4 | CC(C)=CCC/C(C)=C/CC/C(C)=C/CC[C@]1(C)CCc2c3c(cc(C)c2O1)OCN(CCCCCCCCO)C3 [Compound 40, 8-((R)-6,8-dimethyl-8-((3E,7E)-4,8,12-trimethyltrideca-3,7,11-trienyl)-9,10-dihydrochromeno[5,6-e][1,3]oxazin-2(1H,3H,8H)-yl)octan-1-ol] | nanomolar |  | > 20 | 1700 | 1700 | 2.15 | 11.7 | negative | 4.9
